As usually defined, the IC50 is the midpoint of a concentration-inhibition curve. One may read the EC50 as the concentration that produces a half-maximal response. Read a low EC50 as greater potency.

Molecules are shown by their SMILES.

Here are results for one molecule from ChEMBL document CHEMBL1138438, “Structural-activity relationship study of highly-functionalized imidazolines as potent inhibitors of nuclear transcription factor-kappaB mediated IL-6 production” (Bioorg Med Chem, 2009).

Series [1] relates to HeLa. Put plainly: Cell cycle arrest in TNF-alpha-stimulated human HeLa cells transfected with NFkappaB-Luc assessed as accumulation at diploid S phase at 1 uM after 8 hrs by using propidium iodide staining by FACS analysis. It counts as functional. A general note: A flow cytometer gives signals particle by particle.
Series [2] in a line: Cytotoxicity against human whole blood lymphocytes assessed as survival cell count in millions at 20 uM after 24 hrs by trypan blue staining-based hemocytometry.
Series [3] deals with HeLa. Put plainly: Cell cycle arrest in TNF-alpha-stimulated human HeLa cells transfected with NFkappaB-Luc assessed as accumulation at diploid G1 phase at 5 uM after 8 hrs by using propidium iodide staining by FACS analysis. It counts as functional.
Series [4] can be described thus: Cytotoxicity against human whole blood lymphocytes assessed as survival cell count in millions at 1 uM after 24 hrs by trypan blue staining-based hemocytometry.
The subject of series [5] is HeLa. Put plainly: Cell cycle arrest in TNF-alpha-stimulated human HeLa cells transfected with NFkappaB-Luc assessed as accumulation at diploid G2 phase at 5 uM after 8 hrs by using propidium iodide staining by FACS analysis. It counts as functional.
Series [6] concerns HeLa. Put plainly: Cell cycle arrest in TNF-alpha-stimulated human HeLa cells transfected with NFkappaB-Luc assessed as accumulation at diploid S phase at 10 uM after 8 hrs by using propidium iodide staining by FACS analysis. It counts as functional.
The test system of the next series is Blood. Put plainly: Antiinflammatory activity in human whole blood assessed as inhibition of IL-1-beta-stimulated IL6 production preincubated 2 hrs before IL1-beta challenge measured after 22 hrs by ELISA. It counts as functional, tissue-based.
Series [7] deals with HeLa. Put plainly: Cell cycle arrest in TNF-alpha-stimulated human HeLa cells transfected with NFkappaB-Luc assessed as accumulation at diploid G1 phase at 10 uM after 8 hrs by using propidium iodide staining by FACS analysis. It counts as functional.
For series [8], the system named is HeLa. Put plainly: Effect on cell cycle arrest in TNF-alpha-stimulated human HeLa cells transfected with NFkappaB-Luc assessed as total background cell aggregate and debris level at 0.1 uM after 8 hrs by using propidium iodide staining by FACS analysis. It counts as functional.
The test system of series [9] is HeLa. Put plainly: Cell cycle arrest in TNF-alpha-stimulated human HeLa cells transfected with NFkappaB-Luc assessed as accumulation at G2/G1 phase at 0.5 uM after 8 hrs by using propidium iodide staining by FACS analysis. It counts as functional.
The subject of series [10] is HeLa. Put plainly: Effect on cell cycle arrest in TNF-alpha-stimulated human HeLa cells transfected with NFkappaB-Luc assessed as total background cell aggregate and debris level at 0.5 uM after 8 hrs by using propidium iodide staining by FACS analysis. It counts as functional.
Series [11] can be described thus: Cytotoxicity against human whole blood lymphocytes assessed as survival cell count in millions at 3 uM after 24 hrs by trypan blue staining-based hemocytometry.
The test system of series [12] is HeLa. Put plainly: Cell cycle arrest in TNF-alpha-stimulated human HeLa cells transfected with NFkappaB-Luc assessed as accumulation at diploid stage at 1 uM after 8 hrs by using propidium iodide staining by FACS analysis. It counts as functional.
In series [13] the test system is HeLa. Put plainly: Cell cycle arrest in TNF-alpha-stimulated human HeLa cells transfected with NFkappaB-Luc assessed as accumulation at diploid stage at 0.05 uM after 8 hrs by using propidium iodide staining by FACS analysis. It counts as functional.
Series [14] in a line: Inhibition of NF-kappaB-mediated gene transcription expressed in TNF-alpha-stimulated human HeLa cells co-transfected with renilla luciferase-TK gene preincubated for 30 mins before TNFalpha challenge measured after 8 hrs by dual-glo luciferase reporter gene assay. It counts as cell-based.
The test system of series [15] is HeLa. Put plainly: Effect on cell cycle arrest in TNF-alpha-stimulated human HeLa cells transfected with NFkappaB-Luc assessed as cell debris level at 5 uM after 8 hrs by using propidium iodide staining by FACS analysis. It counts as functional.
The test system of series [16] is HeLa. Put plainly: Cell cycle arrest in TNF-alpha-stimulated human HeLa cells transfected with NFkappaB-Luc assessed as accumulation at diploid S phase at 0.1 uM after 8 hrs by using propidium iodide staining by FACS analysis. It counts as functional.
In series [17] the test system is HeLa. Put plainly: Cell cycle arrest in human HeLa cells transfected with NFkappaB-Luc assessed as accumulation at G2/G1 phase at 20 uM after 8 hrs by using propidium iodide staining by FACS analysis. It counts as functional.
The test system of series [18] is HeLa. Put plainly: Cell cycle arrest in TNF-alpha-stimulated human HeLa cells transfected with NFkappaB-Luc assessed as accumulation at diploid G2 phase at 0.5 uM after 8 hrs by using propidium iodide staining by FACS analysis. It counts as functional.
Series [19] relates to HeLa. Put plainly: Effect on cell cycle arrest in TNF-alpha-stimulated human HeLa cells transfected with NFkappaB-Luc assessed as cell aggregate level at 1 uM after 8 hrs by using propidium iodide staining by FACS analysis. It counts as functional.
Series [20] concerns HeLa. Put plainly: Cell cycle arrest in TNF-alpha-stimulated human HeLa cells transfected with NFkappaB-Luc assessed as accumulation at G2/G1 phase at 20 uM after 8 hrs by using propidium iodide staining by FACS analysis. It counts as functional.

As for `CCOC(=O)[C@]1(c2ccccc2)N=C(c2ccccc2)N(Cc2ccccc2)[C@@H]1c1ccccc1` (racemic), the Activity with HeLa [1] was determined as 22.9%; in series [2] it was 1.02 mL⁻¹; in the series with HeLa [3] it was 66.37%; in series [4], 0.8 mL⁻¹; in the series with HeLa [5], 13.84%; with HeLa [6], 16.8%. Besides, the Activity in the series with HeLa [7] stood at 68.19%; in the series with HeLa [8], 0.58%; in the series on HeLa [9] it was 1.91%; with HeLa [10], 1.29%; in series [11], 0.86 mL⁻¹; in the series with HeLa [12] it was 100%. Moreover, the Activity in the series on HeLa [13] amounted to 100%; in the series on HeLa [15], 2.7%; in the series with HeLa [16], 21.47%; with HeLa [17], 1.9%; in the series with HeLa [18], 13.4%; in the series with HeLa [19], 0%. Also, the Activity in the series on HeLa [20] is on record as 1.9%. Further, in the series on Blood, the IC50 is 2.5 µM. Besides, the EC50 in series [14] is 4.67 µM.
